{
  "source": "paper PMC2905291",
  "about": "“A phase I study of the safety and pharmacokinetics of the histone deacetylase inhibitor belinostat administered in combination with carboplatin and/or paclitaxel in patients with solid tumours” (British Journal of Cancer, 2010)",
  "key": {"[1]": {"test_system": "class I and II recombinant HDAC isoforms", "design": "method as in Khan et al, 2008", "details": "ref Khan et al, 2008; cited from earlier work"}, "[2]": {"test_system": "patients with advanced solid malignancy", "details": "in vivo", "experimental": "Belinostat was administered in escalating doses of 600, 800 and 1000 mg m^−2 per day as a 30-min i.v. infusion on days 1–5 q21. Carboplatin was administered as a 30-min i.v. infusion at area under the curve (AUC) 5 on day 3 q21 days, whereas paclitaxel was administered at 175 mg m^−2 i.v. over 3 h. Cytotoxics were given 2–3 h after the administration of belinostat–paclitaxel followed by carboplatin. […] Carboplatin was dosed in accordance with the Calvert formula using ethylenediaminetetraacetic acid clearance to estimate glomerular filtration rate (GFR) ([Calvert et al, 1989]) at the European Union sites and the Jelliffe formula at sites in the United States ([Jelliffe, 1973]). Prophylactic anti-emetic and hypersensivity prophylaxis for paclitaxel were administered as per local standards.\nA DLT was defined as an absolute neutrophil count <0.5 × 10^9 l^−1 lasting for ⩾7 days, or absolute neutrophil count <0.5 × 10^9 l^−1 with sepsis; or platelet count <25 × 10^9 l^−1. In addition, any other drug-related non-haematological grade III or IV toxicity with the exceptions of alopecia, nausea and vomiting, diarrhoea, rash, arthralgias and myalgias was categorized as DLT.\nDose escalation was planned in a classical 3+3 design in up to five cohorts. In cohort 1A, belinostat was to be administered at 600 mg m^−2 together with carboplatin AUC 5; in cohort 1B, […] with paclitaxel 175 mg m^−2. In cohort 2, belinostat at 600 mg m^−2 was to be administered with both carboplatin AUC 5 and paclitaxel at 175 mg m^−2. In cohorts 3 and 4, belinostat was to be administered at 800 and 1000 mg m^−2, respectively, together with the same doses of BelCaP. Treatment cycles were to be repeated until disease progression, evidence of significant treatment-related toxicities, or withdrawal of consent. Up to two dose reductions were to be allowed of all three drugs.\nPre-treatment evaluation included history, physical examination, laboratory assessments, chest x-ray, electrocardiogram (ECG), urinalysis and tumour evaluation with computed tomography (CT) or magnetic resonance imaging (MRI). Laboratory assessments (complete blood count, clotting screen, urea, creatinine, electrolytes, liver function tests, uric acid, glucose and cholesterol) were performed pre-treatment and weekly thereafter as well as on day 4 of cycles 1 and 2 only. Electrocardiograms were performed before and within 1 h after treatment with belinostat in cycle 1 and on day 1 only of all subsequent cycles. Central ECG reading was carried out using a digital analysis method.\nToxicities were graded according to the National Cancer Institute Common Terminology Criteria for Adverse Events version 3.0. Efficacy was assessed by CT or MRI performed every two cycles using Response Evaluation Criteria in Solid Tumors (RECIST) ([Therasse et al, 2000])."}, "[3]": {"test_system": "advanced solid malignancy", "test": "Anti-tumour activity by CT/MRI (RECIST) in phase I patients", "type": "in vivo, human", "details": "for duration of response: confirmed PR"}, "[4]": {"test": "Belinostat plasma pharmacokinetics in patients (HPLC-MS/MS, non-compartmental)", "type": "in vivo, human", "details": "for Cl / Vss / AUC / AUC(0-inf) / Cmax / half-life: mean±s.d.; for AUC / AUC(0-inf) / Cmax / half-life: human, plasma, iv", "experimental": "Belinostat and paclitaxel levels were determined in lithium-heparinised plasma using validated solid-phase extraction high performance liquid chromatograpgy (HPLC)-tandem mass spectrometric detection (MS/MS) methods (Covance, Indianapolis, IN, USA). […] Belinostat plasma concentrations were determined at Covance using a validated method involving solid-phase extraction, separation with acetic acid acetonitril gradient on reversed phase C18 silica and MS/MS using penta-deuterated belinostat as the internal standard. […] For all analytes the AUC was estimated from the start of infusion by the logarithmic-linear trapezoidal rule and extrapolated to infinity using the estimated value of the slope of the terminal logarithmic-linear disposition phase."}, "[5]": {"test_system": "solid and haematological tumours", "details": "cited from earlier work; for dose-limiting toxicities: 2008"}, "[6]": {"design": "method as in Qian et al, 2006", "details": "combined with paclitaxel, docetaxel and carboplatin, in vitro and in vivo; ref Qian et al, 2006; cited from earlier work"}, "[7]": {"details": "eight patients with best response s.d."}, "[8]": {"details": "belinostat 600 mg m^−2 i.v., days 1 and 3, 12 patients"}, "[9]": {"details": "belinostat 800 mg m^−2 i.v., days 1 and 3, 4 patients"}, "[10]": {"details": "belinostat 1000 mg m^−2 i.v., day 1, 7 patients"}, "[11]": {"details": "belinostat 1000 mg m^−2 i.v., day 3, 7 patients"}, "[12]": {"details": "600 mg, belinostat 600 mg m^−2 i.v., days 1 and 3, 12 patients"}, "[13]": {"details": "800 mg, belinostat 800 mg m^−2 i.v., days 1 and 3, 4 patients"}, "[14]": {"details": "1000 mg, belinostat 1000 mg m^−2 i.v., day 1, 7 patients"}, "[15]": {"details": "1000 mg, belinostat 1000 mg m^−2 i.v., day 3, 7 patients"}},
  "note": "Read-outs that look alike come from different tables or passages of the source.",
  "data": [
    {"smiles": "O=C(/C=C/c1cccc(S(=O)(=O)Nc2ccccc2)c1)NO", "note": "[belinostat]", "values": [
      {"measurement": "activity against HDAC isoforms", "setting": "[1]", "result": "nanomolar activity"},
      {"measurement": "Alopecia grade 3, treatment related AE", "setting": "[2]; human", "result": 0},
      {"measurement": "Arthralgia grade 3, treatment related AE", "setting": "[2]; human", "result": 0},
      {"measurement": "Flushing grade 3, treatment related AE", "setting": "[2]; human", "result": 0},
      {"measurement": "Nausea grade 3, treatment related AE", "setting": "[2]; human", "result": 0},
      {"measurement": "Neutropenia grade 4, treatment related AE", "setting": "[2]; human", "result": 13, "unit": "%"},
      {"measurement": "maximal administered dose of belinostat", "setting": "[2]; human", "result": 1000, "unit": "mg m^−2 per day"},
      {"measurement": "recommended dose of belinostat", "setting": "[2]; human, iv", "result": 1000, "unit": "mg m^−2 per day"},
      {"measurement": "cardiac toxicity", "setting": "[2]", "result": "no cardiac toxicity"},
      {"measurement": "grade IV non-haematological adverse events", "setting": "[2]", "result": "no grade IV non-haematological adverse events"},
      {"measurement": "patients with best response of s.d.", "setting": "[3]; 14 patients evaluable", "result": "eight"},
      {"measurement": "patients with stable disease lasting ⩾6 months", "setting": "[3]; belinostat with carboplatin and/or paclitaxel", "result": "six and seven"},
      {"measurement": "partial responses (number of patients)", "setting": "[3]; belinostat with carboplatin and/or paclitaxel, 14 patients evaluable, RECIST", "result": "two"},
      {"measurement": "duration of response", "setting": "[3]; patient with metastatic pancreatic cancer treated with belinostat and carboplatin", "result": 7, "unit": "months"},
      {"measurement": "duration of response", "setting": "[3]; patient with metastatic rectal cancer treated with belinostat, carboplatin and paclitaxel", "result": 9, "unit": "months"},
      {"measurement": "duration of s.d., median", "setting": "[3]; [7]", "result": 6.6, "unit": "months"},
      {"measurement": "duration of s.d., range", "setting": "[3]; [7]", "result": "1–29 months"},
      {"measurement": "CA-125 response", "setting": "[3]; one patient, mixed mullerian tumour of ovarian origin, radiologically s.d. by RECIST", "result": "complete CA-125 response"},
      {"measurement": "duration of s.d., range", "setting": "[3]; seven patients with s.d. lasting ⩾6 months", "result": "6–29 months"},
      {"measurement": "response in patient with metastatic transitional cell cancer of the bladder", "setting": "[3]; treated with belinostat and paclitaxel, otherwise rated s.d.", "result": "resolution of a bony metastatic deposit"},
      {"measurement": "accumulation with repeat dosing", "setting": "[4]; 1000 mg m^−2 per day, day 3 pre-infusion", "result": "no accumulation"},
      {"measurement": "Cl", "setting": "[4]; [8]", "result": "69.7±15.2", "unit": "l h^−1 m^−2"},
      {"measurement": "Vss", "setting": "[4]; [8]", "result": "34.9±6.4", "unit": "l m^−2"},
      {"measurement": "Cl", "setting": "[4]; [9]", "result": "73.7±14.1", "unit": "l h^−1 m^−2"},
      {"measurement": "Vss", "setting": "[4]; [9]", "result": "38.1±9.7", "unit": "l m^−2"},
      {"measurement": "Cl", "setting": "[4]; [10]", "result": "41.1±22.2", "unit": "l h^−1 m^−2"},
      {"measurement": "Vss", "setting": "[4]; [10]", "result": "22.6±9.7", "unit": "l m^−2"},
      {"measurement": "Cl", "setting": "[4]; [11]", "result": "45.1±17.3", "unit": "l h^−1 m^−2"},
      {"measurement": "Vss", "setting": "[4]; [11]", "result": "35.8±17.3", "unit": "l m^−2"},
      {"measurement": "patients with pre-infusion plasma value on day 3 below the limit of quantitation", "setting": "[4]; belinostat 1000 mg m^−2 per day, limit of quantitation 5 ng ml^−1", "result": "five of seven"},
      {"measurement": "effect of concurrent administration on pharmacokinetics", "setting": "[4]; belinostat with carboplatin and/or paclitaxel on day 3", "result": "unaltered"},
      {"measurement": "dose proportionality of pharmacokinetics", "setting": "[4]; dose range 600–1000 mg m^−2", "result": "dose proportional"},
      {"measurement": "AUC", "setting": "[4]; [12]", "result": "28.4 ± 7.1", "unit": "µM·h"},
      {"measurement": "AUC(0-inf)", "setting": "[4]; [12]", "result": "28.4 ± 7.1", "unit": "µM·h"},
      {"measurement": "Cmax", "setting": "[4]; [12]", "result": "58.5 ± 13.8", "unit": "µM"},
      {"measurement": "half-life", "setting": "[4]; [12]", "result": "1.7 ± 0.9", "unit": "h"},
      {"measurement": "AUC", "setting": "[4]; [13]", "result": "35.5 ± 8.7", "unit": "µM·h"},
      {"measurement": "AUC(0-inf)", "setting": "[4]; [13]", "result": "35.6 ± 8.7", "unit": "µM·h"},
      {"measurement": "Cmax", "setting": "[4]; [13]", "result": "70.8 ± 18.9", "unit": "µM"},
      {"measurement": "half-life", "setting": "[4]; [13]", "result": "1.7 ± 0.2", "unit": "h"},
      {"measurement": "AUC", "setting": "[4]; [14]", "result": "102 ± 58.2", "unit": "µM·h"},
      {"measurement": "AUC(0-inf)", "setting": "[4]; [14]", "result": "102 ± 58.3", "unit": "µM·h"},
      {"measurement": "Cmax", "setting": "[4]; [14]", "result": "128 ± 43.5", "unit": "µM"},
      {"measurement": "half-life", "setting": "[4]; [14]", "result": "1 ± 0.1", "unit": "h"},
      {"measurement": "AUC", "setting": "[4]; [15]", "result": "88.8 ± 63.9", "unit": "µM·h"},
      {"measurement": "AUC(0-inf)", "setting": "[4]; [15]", "result": "88.8 ± 63.9", "unit": "µM·h"},
      {"measurement": "Cmax", "setting": "[4]; [15]", "result": "135 ± 54.9", "unit": "µM"},
      {"measurement": "half-life", "setting": "[4]; [15]", "result": "2.7 ± 0.4", "unit": "h"},
      {"measurement": "myelosuppression", "setting": "[5]; single agent phase I studies, ref Steele et al, 2008, Gimsing et al", "result": "no significant myelosuppression"},
      {"measurement": "maximum tolerated dose (MTD)", "setting": "[5]; single agent, i.v., q21 days, ref Steele et al, 2008, Gimsing et al", "result": 1000, "unit": "mg m^−2 per day"},
      {"measurement": "dose-limiting toxicities", "setting": "[5]; single agent, solid tumour study, ref Steele et al", "result": "fatigue, diarrhoea and atrial fibrillation"},
      {"measurement": "dose-limiting toxicities", "setting": "[5]; single agent, study of haematological tumours, ref Gimsing et al", "result": "none were seen"},
      {"measurement": "combination effect", "setting": "[6]", "result": "additive to synergistic"}
    ]}
  ]
}
